PMC12526212, “Novel Isolongifolenone-Based Caprolactam Derivatives as Potential Anticancer Agents via the p53/mTOR/Autophagy Pathway” (Molecules, 2025)

How the values were obtained:
[1] = system: MCF-7 multicellular tumor spheroids; test: 3D spheroid tumor model (calcein AM/PI); format: cell-based, human; settings: E10 1, 5 and 10 μM, 4 days
Excerpt: Three-dimensional (3D) cell culture provides an environment that allows cells to grow and interact with their surroundings in all spatial dimensions, closely mimicking the physiological conditions found in vivo [44]. […] To evaluate the long-term antitumor effects of E10 in a more physiologically relevant model, a 3D spheroid tumor model was established using MCF-7 breast cancer cells. Each spheroid was formed by approximately 2000 MCF-7 cells and cultured for 3 days to allow spheroid maturation. These spheroids were subsequently treated with varying concentrations of E10 (1, 5, and 10 μM) at 48-h intervals over a period of 4 days. For visualization, the multicellular tumor spheroids (MCTSs) were stained with calcein AM and propidium iodide (PI) in culture medium for 1.5 h. The live/dead cell distribution within the spheroids was then visualized using laser scanning confocal microscopy. […] This limited cell death is likely attributable to hypoxic and nutrient-deprived conditions resulting from excessive cell proliferation.
[…] MCF-7 cells were seeded into cell-repellent 96-well U-bottom plates (Sbio, Tokyo, Japan) at a density of 3000 cells per well and cultured for 72 h to promote spheroid formation. […] After treatment, spheroids were stained with 5 μM PI and 10 μM Calcein-AM, and observed under a fluorescence microscope (Olympus, Tokyo, Japan).

[2] = system: MCF-7 cells; test: Annexin V/PI apoptosis assay by flow cytometry; format: cell-based, human
Description: The ability of drugs to induce cancer cell apoptosis is a key indicator of their chemotherapeutic potential. […] To examine the apoptotic effects of E10, an Annexin V-FITC dual-staining assay (with flow cytometric analysis) was performed. As shown in Figure 3A (also Figure 3C), treatment with increasing concentrations of E10 induced a marked elevation in apoptotic cell populations.
Autophagy has bidirectional regulation effects on cell survival. To confirm the role of autophagy in E10-induced cell death, 3-MA was used as an autophagy blocker.
MCF-7 cells were seeded at a density of 6 × 10^5 cells per well in 12-well plates and incubated in a 37 °C, 5% CO2 incubator for 24 h. After treatment with different concentrations of compound E10, the cells were washed with PBS two times, collected by trypsin enzymic digestion and centrifugation, and the collected cells were subsequently stained with 5 µL Annexin V-APC (YSRIBIO-C1084) and 5 µL PI for 10 min in the dark conditions. The cell apoptosis was measured with the flow cytometry (BD), and the data were analyzed by flowjo 10.6 software.

[3] = system: A549; test: CCK-8 antiproliferative assay, A549; format: cell-based; settings: Homo sapiens, A549; CCK-8, 48 h, mean ± SD of three experiments; read-out: IC50 A549
Description: (§1) After synthesis and characterization, the isolongifolenone bicyclocaprolactam derivatives were evaluated for their in vitro antiproliferative activity against three cancer cell lines (MCF-7, HepG2, A549) using a CCK-8 assay. […] In general, the antiproliferative activities of most of these compounds were similar, irrespective of whether electron-withdrawing or electron-donating substituents were introduced in the phenoxy ring.
(§2) Three cancer cell lines (human breast adenocarcinoma cells MCF-7, human lung adenocarcinoma epithelial cells A549, and human hepatocellular carcinoma cells HepG2) were obtained from the Cell Bank of the Chinese Academy of Sciences (Shanghai, China). LO2 human normal liver cells were also purchased from STEM RECELL (Beijing, China, STM-CL-5770). The anti-proliferation activity of compounds was tested on three cancer cell lines. The cytotoxicity of compounds as tested on normal cell line (human normal liver cells LO2). Cells were seeded at a density of 5000 cells per well in 96-well plates. Natural product piperlongumine was used as the positive control. All experiments were performed in triplicate. Three cancer cell lines were cultured in High DMEM medium or RIPM 1640 containing 10% FBS (Sijiqing, Hangzhou, China) and 1% antibiotics at 37 °C in a 5% CO2 incubator. The experimental cells were seeded in a 96-well plate at 5000 cells per well and incubated for 24 h. The old medium was replaced with experimental medium, and the cells were cultured for 48 h. Afterward, 10 µL of CCK-8 solution was added to each well, and the cells were incubated for 3 h. The absorbance at 450 nm was measured using a microplate reader.

[4] = system: MCF-7; test: CCK-8 antiproliferative assay, MCF-7; format: cell-based; settings: Homo sapiens, MCF7; CCK-8, 48 h, mean ± SD of three experiments; read-out: IC50 MCF-7
Description: as §1, §2

[5] = system: HepG2; test: CCK-8 antiproliferative assay, HepG2; format: cell-based; settings: Homo sapiens, HepG2; CCK-8, 48 h, mean ± SD of three experiments; read-out: IC50 HepG2
Description: as §1, §2

[6] = system: MCF-7 cells; test: MMP assay (JC-1, flow cytometry); format: cell-based, human; settings: 24 h
Description: If intracellular ROS levels rise above a certain threshold, the mitochondria may become damaged. […] In these experiments, MCF-7 cells were incubated with E10 for 24 h, and mitochondrial membrane potential (MMP) was then evaluated by flow cytometry using JC-1 as an indicator. […] These changes in the red/green fluorescence ratio are indicative of mitochondrial depolarization, a decrease in mitochondrial function, and potentially damage to mitochondria.
MCF-7 cells were treated with different concentrations of compound E10 for 24 h. After that, the cells were collected and stained with JC-1 (Yeasen, Shanghai, China, 40706ES60) for 15 min. The cell samples were detected by flow cytometry (BD) and the data were analyzed by flowjo 10.6 software.

[7] = system: MCF-7 cells; test: Intracellular ROS assay (DCFH-DA, flow cytometry); format: cell-based, human; settings: 24 h, compared to control
Description: Oxidative stress is known to increase intracellular reactive oxygen species (ROS) levels and to contribute to cell apoptosis and autophagy. To investigate whether E10 induced intracellular ROS accumulation, ROS levels in MCF-7 cells were determined by flow cytometric assay using DCFH-DA as a redox-sensitive probe.
For the detection of intracellular ROS levels, MCF-7 cells were seeded at a density of 5 × 10^5 cells per well in a 12-well plate and treated with different concentrations of compound E10 for 24 h. The cells were collected and stained with 5 μM of DCFH-DA dye (Yeasen, Shanghai, China, 50101ES01) in the incubator for 30 min. Flow cytometry (BD) detected the stained cell samples, and the data were analyzed using FlowJo software.

[8] = Figure 6A, E10 or E10 + 3MA, 24 h

Compound: CC1(C)C2=CC(=O)N(C(=O)C=Cc3cccc(C(F)(F)F)c3)CC(C)(C)C23CCC1C3 (centres unmarked) [E10, 5,5,9,9-Tetramethyl-3-(3-(3-(trifluoromethyl)phenyl)acryloyl)-4,5,6,7,8,9-hexahydro-5a,8-methanobenzo[d]azepin-2(3H)-one]
- viability and structural integrity of MCF-7 MCTSs [1]: dose-dependent inhibitory effect
- apoptosis rate ([2]; E10 0.5 µM, 24 h): 7.78%
- apoptosis rate ([2]; E10 1.0 µM, 24 h): 19.53%
- apoptosis rate ([2]; E10 2.0 µM, 24 h): 24.93%
- Q1 necrotic cells [2, 8]: 15.9
- Q2 late apoptotic cells [2, 8]: 9.62
- Q3 early apoptotic cells [2, 8]: 0.47
- Q4 viable cells [2, 8]: 74.0
- cell apoptosis with or without autophagy blocker 3-MA ([2]; Figure 6A, in comparison with control): significantly increased
- IC50 [3]: 1.39 ± 0.32 µM
- IC50 [4]: 0.32 ± 0.05 µM
- IC50 [5]: 1.36 ± 0.18 µM
- mitochondrial membrane potential [6]: concentration-dependent reduction in MMP
- intracellular ROS levels [7]: markedly increased
